From patent EP0240717A2, “Prevention of mammary carcinoma” (The Board of Regents of the University of Nebraska, priority 1986, dated 1987)

Key:
breast carcinoma = details: cited from earlier work; for percent of the rats developed cancer in 7 months / percent of the rats developed cancer in one year: rats treated with drug and a carcinogen; for percent of the rats developed cancer in 7 months: incidence at 7 months; for percent of the rats developed cancer in one year: incidence at one year; for lifetime effect in reducing the appearance of breast carcinoma: treated rats compared to other rats receiving carcinogen at the same time
[1] = in animals; cited from earlier work
[2] = in vitro by tissues; cited from earlier work
mammary carcinoma = experiment: Anti-mammary carcinogenic activity in female rats fed DMBA, hormone given by pellet or minipump; assay type: in vivo, Sprague-Dawley rats; details: doses that do not have undesirable side effects
Description: In tests for anti-mammary carcinogenic activity following the feeding of carcinogen to mammals, ten different estrogenic compounds were implanted in female rats fed a carcinogen. The incidence of breast cancer for each compound was determined. Rats receiving only the carcinogen were used as controls. Ethynyl estriol was obtained from Eli Lilly, Inc., Greenfield, Indiana; the other estrogens were obtained from Sigma, Inc., St. Louis, Missouri, or Steraloids, Inc., Wilton, New Hampshire.
In all of the tests, intact female Sprague-Dawley rats, obtained from Sasco, Inc., Omaha, Nebraska, at 50 to 55 days of age were used.
They were: (1) randomized upon receipt; (2) housed individually in suspended cages; (3) fed Purina Lab Chow and distilled water; and (4) the temperature was maintained within 22-23 degrees and 40-50 percent relative humidity. […]
Rats free of neoplasms were followed for one year. […] Significant differences in cancer incidence between treated and controlled groups were determined.
The differences in cancer incidence between treated and controlled groups in each experiment were determined by X2 using the Yate's correction. […] The significance of difference in mammary-carcinoma-free survival in rate-days was determined for these groups at 210 days after DMBA administration using the Mann-Whitney U Test. […]

[3] = tested on: breast cancers induced by a carcinogenic chemical; details: cited from earlier work

Row | Compound | percent of the rats developed cancer in 7 months (breast carcinoma) | percent of the rats developed cancer in one year (breast carcinoma) | further results
1 | CC/C(=C(/CC)c1ccc(O)cc1)c1ccc(O)cc1 [diethylstilbestrol] | 88% | 100% | –
2 | C#C[C@]1(O)CC[C@H]2[C@@H]3CCc4cc(O)ccc4[C@H]3[C@@H](OC)C[C@@]21C [11 beta methoxy 17 alpha ethynyl estradiol 17 beta] | – | – | carcinogenicity [1]: carcinogenic in animals
3 | COc1ccc2c(c1)CC[C@@H]1[C@@H]2CC[C@]2(C)[C@@H](O)[C@H](O)C[C@@H]12 [estriol 3-methyl ether] | – | – | lifetime effect in reducing the appearance of breast carcinoma (breast carcinoma): 30-50%
4 | C[C@]12CCc3c(ccc4cc(O)ccc34)[C@@H]1CCC2=O [d-equilenin] | – | – | position of oxidation [2]: almost exclusively at the C4 (R1) position
5 | CC/C(=C(\c1ccccc1)c1ccc(OCCN(C)C)cc1)c1ccccc1 [tamoxifen] | 78% | 89% | –
6 | C#C[C@]1(O)[C@H](O)C[C@H]2[C@@H]3CCc4cc(O)ccc4[C@H]3CC[C@@]21C [17 alpha ethynyl estriol] | – | – | risk of mammary carcinoma (mammary carcinoma): reduce the risk of mammary carcinoma
7 | C#C[C@]1(O)CC[C@H]2[C@@H]3CCc4cc(O)ccc4[C@H]3CC[C@@]21C [17 alpha ethynyl estradiol 17 beta] | 90% | 100% | –
8 | C[C@]12CC[C@@H]3c4cc(O)c(O)cc4CC[C@H]3[C@@H]1CC[C@@H]2O [2-OH estradiol 17 beta] | 78% | 94% | –
9 | C[C@]12CC[C@@H]3c4ccc(O)cc4C(=O)C[C@H]3[C@@H]1CC[C@@H]2O [6 keto estradiol, 6-keto estradiol 17 beta] | 31% | 61% | lifetime effect in reducing the appearance of breast carcinoma (breast carcinoma): 30-50%
10 | C[C@]12CC[C@@H]3c4ccc(O)cc4CC[C@H]3[C@@H]1C[C@@H](O)[C@@H]2O [estriol] | 26% | 63% | inhibiting the development of breast cancers [3]: moderately effective
